The source of these data is ChEMBL document CHEMBL3046525, “In vitro antiproliferative activity of 11-aminoalkylamino-substituted 5H-indolo[2,3-b]quinolines; improving activity of neocryptolepines by installation of ester substituent” (Med Chem Res, 2013).

Data set [1] in a line: Selectivity ratio of IC50 for mouse BALB/3T3 cells to IC50 for human HCT116 cells. The note with it: BALB/3T3 cells versus HCT116 cells, read-out: Ratio IC50. The class given is cell-based, HCT-116.
Another data set has as its system A549. In words: Antiproliferative activity against Homo sapiens (human) A549 cells after 72 hr by SRB assay. The class given is functional, cell-based. The settings on record: A549, 72 h.
The next data set concerns BALB/3T3. In words: Cytotoxicity against Mus musculus (mouse) BALB/3T3 cells after 72 hr by SRB assay. The class given is cell-based. The settings on record: BALB/3T3, 72 h. In general terms: The SRB assay estimates cell density from bound dye.
The next data set has as its system MV4-11. As to the kind of experiment: Antiproliferative activity against Homo sapiens (human) MV411 cells after 72 hr by MTT assay. The class given is functional, cell-based. The note with it: MV4-11, 72 h. In general terms: Tetrazolium assays rely on reduction of a dye to a coloured formazan, in cell work by metabolically active cells.

In the case of `Cn1c2nc3ccc(Br)cc3c-2c(NCCCN)c2cc(Cl)ccc21`, the selectivity ratio in data set [1] worked out at 4.
For orientation: IC50 means the concentration that inhibits the measured activity by half. For the molecule `COC(=O)c1ccc2nc3n(C)c4ccc(Br)cc4c(NCCCN)c-3c2c1`, the IC50 in the data set on A549 is 194 nM; with BALB/3T3, 833 nM; in the data set with MV4-11, 56 nM. Further, in data set [1], the selectivity ratio turned out to be 4.
Regarding `CN(C)CCCNc1c2c3cc(C(=O)O)ccc3nc-2n(C)c2ccccc12`, in the data set with MV4-11, the IC50 was more than 25000 nM.
For `COC(=O)c1ccc2nc3n(C)c4ccccc4c(N4CCCN(C)CC4)c-3c2c1`, the selectivity ratio in data set [1] was determined as 4.
Regarding `COC(=O)c1ccc2c(c1)c(NCCCN)c1c3ccccc3nc-1n2C`, the selectivity ratio in data set [1] was 4.
Regarding `Cn1c2nc3ccc(C(=O)O)cc3c-2c(NCCCO)c2ccccc21`, the IC50 with MV4-11 was more than 25000 nM.
As for `COC(=O)c1ccc2nc3n(C)c4ccccc4c(NCCCN)c-3c2c1`, in data set [1], the selectivity ratio was found to be 4.
The same measure, in the same setting: the figure for `COC(=O)c1ccc2nc3n(C)c4ccc(C(=O)OC)cc4c(NCCCN)c-3c2c1` is 28.
`COC(=O)c1ccc2nc3n(C)c4ccccc4c(NCCN(C)C)c-3c2c1`: in data set [1], the selectivity ratio was 4.
Regarding `COC(=O)c1ccc2nc3n(C)c4ccccc4c(NCCCCN)c-3c2c1`, the selectivity ratio in data set [1] was determined as 4.
As for `COC(=O)c1ccc2c(c1)c(NCCCN)c1c3cc(Br)ccc3nc-1n2C`, the selectivity ratio in data set [1] was found to be 4.
The same measure, in the same setting: in the case of `COC(=O)c1ccc2nc3n(C)c4ccccc4c(N4CCOCC4)c-3c2c1` it was 4.
The molecule `CN1CCCN(c2c3c4ccccc4nc-3n(C)c3ccccc23)CC1` had an IC50 with MV4-11 of 7170 nM.
`Cn1c2nc3ccc(C(=O)O)cc3c-2c(NCCCN)c2ccccc21` returned a concentration for half-maximal inhibition (IC50) in the data set on MV4-11 of more than 25000 nM.
For the molecule `COC(=O)c1ccc2nc3n(C)c4ccccc4c(NCCCO)c-3c2c1`, the selectivity ratio in data set [1] is 4.
Regarding `Cn1c2nc3ccccc3c-2c(NCCCCN)c2ccccc21`, in the data set on MV4-11, the IC50 came to 100 nM.
For `COC(=O)c1ccc2nc3n(C)c4ccccc4c(NCCCN(C)C)c-3c2c1`, the selectivity ratio in data set [1] was found to be 4.
Regarding `Cn1c2nc3ccccc3c-2c(NCCCO)c2ccccc21`, in the data set on MV4-11, the IC50 came to 170 nM.
For `CN(C)CCNc1c2c3cc(C(=O)O)ccc3nc-2n(C)c2ccccc12`, 9280 nM corresponded to half-maximal inhibition with MV4-11 (IC50). This IC50 is about 55-fold higher than that of the molecule before.
